Measurements taken from ChEMBL document CHEMBL5137035 (Eur J Med Chem, 2022).

Columns and labels:
[1] = biological target: T1, Dihydroorotate dehydrogenase (quinone), mitochondrial (Homo sapiens, UniProt Q02127); assay: Inhibition of human N-terminal SUMO-tagged DHODH expressed in Escherichia coli BL21(DE3) at 100 nM using dihydroorotate as substrate by DCIP based microplate reader analysis relative to control
[2] = biological target: T1, Dihydroorotate dehydrogenase (quinone), mitochondrial; assay: Inhibition of human N-terminal SUMO-tagged DHODH expressed in Escherichia coli BL21(DE3) at 1 uM using dihydroorotate as substrate by DCIP based microplate reader analysis relative to control
[3] = biological target: T1, Dihydroorotate dehydrogenase (quinone), mitochondrial; assay: Inhibition of human N-terminal SUMO-tagged DHODH expressed in Escherichia coli BL21(DE3) using dihydroorotate substrate by DCIP based microplate reader analysis
Raji = assay: Antiproliferative activity against human Raji cells assessed as cell growth inhibition measured after 96 hrs by MTT assay; type: functional, cell-based
[4] = Acute toxicity in BALB/c mouse assessed as animal death at 400 mg/kg, po measured at 2 days; type: organism-based; settings: in vivo, 48 h, time 2 day
[5] = Toxicity in BALB/c mouse xenografted with HCT-116 cells assessed as animal death at 30 mg/kg, po and measured at 18 day; type: organism-based; settings: in vivo, 432 h
[6] = Toxicity in BALB/c mouse assessed as histopathological changes in spleen at 400 mg/kg, po measured after 14 days by H and E staining analysis; type: organism-based; settings: in vivo, 336 h, time 14 day
[7] = Toxicity in BALB/c mouse assessed as histopathological changes in heart at 400 mg/kg, po measured after 14 days by H and E staining analysis; type: organism-based; settings: in vivo, 336 h, time 14 day
[8] = Toxicity in BALB/c mouse assessed as histopathological changes in liver at 400 mg/kg, po measured after 14 days by H and E staining analysis; type: organism-based; settings: in vivo, 336 h, time 14 day
[9] = Toxicity in BALB/c mouse assessed as histopathological changes in lungs at 400 mg/kg, po measured after 14 days by H and E staining analysis; type: organism-based; settings: in vivo, 336 h, time 14 day
[10] = Hepatotoxicity in BALB/c mouse assessed as change in blood ALP level at 400 mg/kg, po measured after 14 days by biochemical assay; type: toxicity, organism-based; settings: in vivo, 336 h, time 14 day
[11] = Toxicity in BALB/c mouse assessed as adverse effect at 400 mg/kg, po measured for 14 days; type: organism-based; settings: in vivo, 336 h, time 14 day
HCT-116 [12] = assay: Antiproliferative activity against human HCT-116 cells expressing human DHODH assessed as reduction in cell viability measured after 96 hrs by MTT assay; type: functional, cell-based; settings: HCT-116, 96 h
[13] = Toxicity in BALB/c mouse xenografted with HCT-116 cells assessed as side effect at 30 mg/kg, po and measured at 18 day; type: organism-based; settings: in vivo, 432 h
[14] = Renal toxicity in BALB/c mouse assessed as change in blood uric acid level at 400 mg/kg, po measured after 14 days by biochemical assay; type: organism-based; settings: in vivo, 336 h, time 14 day
HCT-116 [15] = assay: Antitumor activity against human HCT-116 cells xenografted in nude mouse assessed as tumor growth inhibition at 30 mg/kg, po; type: functional; settings: read-out: TGI
[16] = Toxicity in BALB/c mouse assessed as histopathological changes in kidney at 400 mg/kg, po measured after 14 days by H and E staining analysis; type: organism-based; settings: in vivo, 336 h, time 14 day

T1 sequence (Q02127 whole entry): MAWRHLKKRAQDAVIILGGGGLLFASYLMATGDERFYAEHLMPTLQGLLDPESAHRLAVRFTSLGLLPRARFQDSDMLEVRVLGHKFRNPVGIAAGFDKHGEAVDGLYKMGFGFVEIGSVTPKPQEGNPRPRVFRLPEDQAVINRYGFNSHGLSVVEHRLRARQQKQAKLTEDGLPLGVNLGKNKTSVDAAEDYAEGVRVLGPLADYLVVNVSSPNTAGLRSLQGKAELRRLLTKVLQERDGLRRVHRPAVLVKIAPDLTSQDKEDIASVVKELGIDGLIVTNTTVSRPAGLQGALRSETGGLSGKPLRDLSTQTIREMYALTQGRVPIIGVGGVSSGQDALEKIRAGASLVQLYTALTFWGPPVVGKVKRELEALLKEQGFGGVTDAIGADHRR

SMILES | inhibition [1] | inhibition [2] | IC50 [3] | other results
C=C(C)COc1cc(NC(=O)/C(C#N)=C(/C)O)c(F)cc1-c1cccc(OC)c1 | 58.6% | 92.9% | – | –
CCC(C)Oc1cc(NC(=O)/C(C#N)=C(/C)O)c(F)cc1-c1ccnc(F)c1 (stereo not given) | 87.7% | 98.5% | 0.0203 µM | –
CCC(C)Oc1cc(NC(=O)/C(C#N)=C(/C)O)c(F)cc1-c1cccc(F)c1C (stereo not given) | 82.5% | 97.8% | 0.0261 µM | –
COc1cccc(-c2cc(F)c(Nc3ncccc3C(=O)O)c(F)c2)c1 [ASLAN-003] | – | – | – | IC50 (Raji): 0.27 µM
COc1cccc(-c2cc(F)c(NC(=O)/C(C#N)=C(/C)O)cc2OC)c1 | 57.7% | 91.8% | 0.0521 µM | –
CCC(C)Oc1cc(NC(=O)/C(C#N)=C(/C)O)c(F)cc1-c1ccc(F)nc1 (stereo not given) | 52.3% | 89.7% | – | –
CCC(C)Oc1cc(NC(=O)/C(C#N)=C(/C)O)c(F)cc1-c1ccccc1 (stereo not given) | 80.4% | 96.9% | 0.0289 µM | –
CCC(C)Oc1cc(NC(=O)/C(C#N)=C(/C)O)c(F)cc1-c1ccc(Cl)cc1 (stereo not given) | 68.5% | 95.4% | 0.0333 µM | –
CCC(C)Oc1cc(NC(=O)/C(C#N)=C(/C)O)c(F)cc1-c1cccc2ccccc12 (stereo not given) | 95% | 99.7% | 0.0098 µM | IC50 (Raji): 0.215 µM
CCC(C)Oc1cc(NC(=O)/C(C#N)=C(/C)O)c(F)cc1-c1ccccc1F (stereo not given) | 82.9% | 97.3% | 0.0273 µM | –
CCC(C)Oc1cc(NC(=O)/C(C#N)=C(/C)O)c(F)cc1-c1ccc(F)cc1 (stereo not given) | 72.5% | 96.1% | 0.0378 µM | –
COc1cccc(-c2cc(F)c(NC(=O)/C(C#N)=C(/C)O)cc2OCC2CCCCC2)c1 | 64% | 93.6% | 0.0431 µM | –
CCC(C)Oc1cc(NC(=O)/C(C#N)=C(/C)O)c(F)cc1-c1cc(F)cc(F)c1 (stereo not given) | 85.1% | 98.8% | 0.0226 µM | –
CCOc1cc(NC(=O)/C(C#N)=C(/C)O)c(F)cc1-c1cccc(OC)c1 | 65.2% | 93.1% | 0.0414 µM | –
CCC(C)Oc1cc(NC(=O)/C(C#N)=C(/C)O)c(F)cc1-c1cccc(OC(F)(F)F)c1 (stereo not given) | 92.4% | 99.2% | 0.0109 µM | IC50 (Raji): 0.13 µM
CCCOc1cc(NC(=O)/C(C#N)=C(/C)O)c(F)cc1-c1cccc(OC)c1 | 68.2% | 93.6% | 0.0346 µM | –
CCC(C)Oc1cc(NC(=O)/C(C#N)=C(/C)O)c(F)cc1-c1ccccc1Cl (stereo not given) | 86.3% | 98.8% | 0.0218 µM | –
COc1cccc(-c2cc(F)c(NC(=O)/C(C#N)=C(/C)O)cc2OCc2ccccc2F)c1 | 48.3% | 89.8% | – | –
CCC(C)Oc1cc(NC(=O)/C(C#N)=C(/C)O)c(F)cc1-c1cccc(OC)c1 (stereo not given) | 91.2% | 99.2% | 0.0092 µM | IC50 (Raji): 0.61 µM
C/C(O)=C(\C#N)C(=O)Nc1cc(OC(C)C)c(-c2cccc(C(F)(F)F)c2)cc1F | – | – | 0.0102 µM | Activity [4]: Toxic; Activity [5]: Non-Toxic; Activity [6]: Non-Toxic; Activity [7]: Non-Toxic; Activity [8]: Non-Toxic; IC50 (Raji): 0.0701 µM; Activity [9]: Non-Toxic; Activity [10]: Toxic; Activity [11]: Non-Toxic; IC50 (HCT-116 [12]): 0.3 µM; Activity [13]: Non-Toxic; Activity [14]: Toxic; inhibition in vivo at 30 mg/kg (HCT-116 [15]): 54.4%; Activity [16]: Non-Toxic
